Experiments:
[1] = tested on: histone H2B-HaloTag fusion; assay: Halo-protein specificity (Specificity Factor), single molecule spot detection; assay type: cell-based; conditions: ratio of slope (spots vs dye concentration, 200 nM to 1 nM, 45 minutes) relative to PA-JF549; WT and H2B-HaloTag U2OS cells
Text: Images were collected every 10 msec for 5 seconds per field of view and pulses of ascending intensity 405 nm light (between 0 and 12 mW at the coverslip) were used to photoactivate dye molecules.
For each dye compound, a linear regression was used to determine the relationship between the concentration of dye compound and the number of fluorescence spots detected on the microscope, where in WT cells the ideal dye would have no correlation between compound concentration and number of slots measured. The Specificity Factor was calculated as the ratio of the slope of the compound in question relative to the slope calculated for PA-JF549 and is shown in Table 3 below.

[2] = tested on: Wild-type (WT) U2OS cells; assay: Reduction in nonspecific labeling of WT cells (number of tracks vs PA-JF549); assay type: cell-based; conditions: 100 nM, 1 hr, ratio with PA-JF549 in the numerator
Procedure: Using the methods described in Tables 4a and 4b above, labelling specificity of the compound of Examples 1-28 was measured and compared to PA-JF549. U2OS cells wild type or expressing ER-HaloTag fusion were incubated with PA-JF549 or Examples 1-28 for 1 hr. […] Labeling specificity, as measured by the fold reduction in nonspecific labeling of WT cells, was calculated by number of tracks measured in WT cells for Examples 1-28 compared to the number of tracks in WT cells for PA-JF549, expressed as the ratio with PA-JF549 in the numerator.

[3] = Table 4b, Example 19 with 642 nm light

| SMILES | Specificity Factor [1] | Fold reduction in nonspecific labeling ([2]; Table 4a) | Fold reduction in nonspecific labeling [2, 3] |
| --- | --- | --- | --- |
| CN(C)C(=O)C1CN(c2ccc3c(c2)Oc2cc(N4CC(C(=O)N(C)C)C4)ccc2C32C(=[N+]=[N-])C(=O)c3ccc(C(=O)NCCOCCOCCCCCCCl)cc32)C1 [Example 4, 1,1′-(6-((2-(2-((6-chlorohexyl)oxy)ethoxy)ethyl)carbamoyl)-2-diazo-3-oxo-2,3-dihydrospiro[indene-1,9′-xanthene]-3′,6′-diyl)bis(N,N-dimethylazetidine-3-carboxamide)] | 23.8 | >10 | >10 |
| [N-]=[N+]=C1C(=O)c2ccc(C(=O)NCCOCCOCCCCCCCl)cc2C12c1ccc(N3CC(C(=O)O)C3)cc1Oc1cc(N3CC(C(=O)O)C3)ccc12 [Reference Example 2, 1,1′-(6-((2-(2-((6-chlorohexyl)oxy)ethoxy)ethyl)carbamoyl)-2-diazo-3-oxo-2,3-dihydrospiro[indene-1,9′-xanthene]-3′,6′-diyl)bis(azetidine-3-carboxylic acid)] | <1 | >10 | >10 |
| COC(=O)C1CN(c2ccc3c(c2)Oc2cc(N4CC(C(=O)OC)C4)ccc2C32C(=[N+]=[N-])C(=O)c3ccc(C(=O)NCCOCCOCCCCCCCl)cc32)C1 [Reference Example 1, dimethyl 1,1′-(6-((2-(2-((6-chlorohexyl)oxy)ethoxy)ethyl)carbamoyl)-2-diazo-3-oxo-2,3-dihydrospiro[indene-1,9′-xanthene]-3′,6′-diyl)bis(azetidine-3-carboxylate)] | 2.66 | >10 | >10 |
| COC[C@H]1CCN1c1ccc2c(c1)Oc1cc(N3CC[C@@H]3COC)ccc1C21C(=[N+]=[N-])C(=O)c2ccc(C(=O)NCCOCCOCCCCCCCl)cc21 [Example 3, N-(2-(2-((6-chlorohexyl)oxy)ethoxy)ethyl)-2-diazo-3′,6′-bis((R)-2-(methoxymethyl)azetidin-1-yl)-3-oxo-2,3-dihydrospiro[indene-1,9′-xanthene]-6-carboxamide] | 2.07 | 1-5 | 1-5 |
| [N-]=[N+]=C1C(=O)c2ccc(C(=O)NCCOCCOCCCCCCCl)cc2C12c1ccc(N3CC(C(=O)N4CCCC4)C3)cc1Oc1cc(N3CC(C(=O)N4CCCC4)C3)ccc12 [Example 10, N-(2-(2-((6-chlorohexyl)oxy)ethoxy)ethyl)-2-diazo-3-oxo-3′,6′-bis(3-(pyrrolidine-1-carbonyl)azetidin-1-yl)-2,3-dihydrospiro[indene-1,9′-xanthene]-6-carboxamide] |  | 5-10 | 5-10 |
| CN1CCN(C(=O)C2CN(c3ccc4c(c3)Oc3cc(N5CC(C(=O)N6CCN(C)CC6)C5)ccc3C43C(=[N+]=[N-])C(=O)c4ccc(C(=O)NCCOCCOCCCCCCCl)cc43)C2)CC1 [Example 11, N-(2-(2-((6-chlorohexyl)oxy)ethoxy)ethyl)-2-diazo-3′,6′-bis(3-(4-methylpiperazine-1-carbonyl)azetidin-1-yl)-3-oxo-2,3-dihydrospiro[indene-1,9′-xanthene]-6-carboxamide] |  | 1-5 | 1-5 |

From patent publication US20260234403A1, “PHOTOACTIVE FLUORESCENT COMPOUNDS AND USE THEREOF FOR LABELING OF PROTEINS” (EIKON THERAPEUTICS, INC., priority 2023, published 2026)
